{
  "source": "patent US20210386367A1",
  "about": "“DEVICES AND SYSTEMS FOR GASTROINTESTINAL MICROBIOME DETECTION AND MANIPULATION” (Progenity, Inc., priority 2018, published 2021)",
  "key": {"E. coli MMX 1312": {"tested_on": "E. coli MMX 1312", "assay": "Broth microdilution MIC (time-kill study)", "assay_type": "cell-based, Escherichia coli"}, "[1]": {"tested_on": "E. coli, Streptococcus spp., and Bacteroides spp. isolates", "assay_type": "cell-based", "settings": "across the evaluated isolates", "procedure": "Initial values of the MIC were determined by agar dilution in accordance with guidelines from the Clinical and Laboratory Standards Institute (CLSI; (1) “Methods for Dilution Antimicrobial Susceptibility Tests for Bacteria That Grow Aerobically; Approved Standard; 11th ed.,” CLSI standard M07, 2018; (2) “Methods for Antimicrobial Susceptibility Testing of Anaerobic Bacteria; Approved Standard—Eighth Edition,” CLSI document M11-A8, 2012.).\nIf there were no colonies on the antibiotic selection plates, the spontaneous mutation frequency was reported as less than the frequency observed with one colony to indicate that the spontaneous mutation frequency was less than the limit of detection (one CFU). […] The mutation prevention concentration (MPC) was reported as the lowest concentration for which no mutants were selected."}, "Escherichia coli": {"tested_on": "Escherichia coli", "assay": "Broth microdilution MIC, 50 clinical isolates (incl. ESBL, one NDM-1)", "assay_type": "cell-based", "procedure": "(§1) Minimal inhibitory concentration (MIC) values were determined by broth microdilution or agar dilution in accordance with guidelines from the Clinical and Laboratory Standards Institute (CLSI; (1) “Methods for Dilution Antimicrobial Susceptibility Tests for Bacteria That Grow Aerobically; Approved Standard; 11th ed.” CLSI standard M07-A11, 2018; (2) “Performance Standards for Antimicrobial Susceptibility Testing; Twenty-Eighth Informational Supplement,” CLSI document M100-S28, 2018; and (3) “Methods for Antimicrobial Susceptibility Testing of Anaerobic Bacteria; Approved Standard—Eighth Edition,” CLSI document M11-A8, 2012).\n(§2) Tested aerobically by broth microdilution: • Escherichia coli, n=50 • Klebsiella spp., n=50 • Pseudomonas aeruginosa, n=50 • Streptococcus spp., n=50 • Staphylococcus aureus, n=50 • Enterococcus faecalis, n=50 • Enterobacter aerogenes, n=50 • Proteus mirabilis, n=50\n(§3) Broth microdilution testing of aerobic bacteria was conducted in cation-adjusted Mueller Hinton broth (MHBII). For testing streptococci, lysed horse blood (LHB) was added to MHBII broth at a final concentration of 3%. Where LHB was used, it was added after filtering.\n(§4) Broth microdilution susceptibility testing in 96-well microplates was conducted in accordance with CLSI methods (1) and (2). Automated liquid handlers were used to conduct serial dilutions and liquid transfers, including the Multidrop 384 (Labsystems, Helsinki, Finland), Biomek 2000, and the Biomek FX (Beckman Coulter, Fullerton, Calif.). All wells in columns 2 through 12 of a standard 96-well microdilution plate (Costar 3795) were filled with 150 μL of the appropriate diluent. Then, 300 μL of the test agents were added to the wells of column 1 of the plates at 100× the highest final concentration to be tested. Serial two-fold dilutions were made across the rows through column 11 using the Biomek 2000. The wells of column 12 contained no drug and served as the growth control wells. This plate served as the “mother plate” from which MIC assay plates or “daughter plates” were made.\n(§5) The daughter plates were loaded with 190 μL per well of the appropriate medium using the Multidrop 384. The daughter plates were created using the Biomek FX which transferred 2 μL of drug solution from each well of a mother plate to each corresponding well of the daughter plate in a single step. A standardized inoculum of each test organism was prepared per CLSI methods (1) to equal a 0.5 McFarland standard, followed by a dilution of 1:20 for aerobes and 1:10 for anaerobes. The plates were then inoculated with 10 μL of the diluted inoculum using the Biomek 2000 from low to high drug concentration, resulting in a final concentration of approximately 5×10^5 CFU/mL per well. An un-inoculated plate was incubated in parallel for each medium for the purpose of assessing solubility of the drug in the test media.\n(§6) Inoculated plates were stacked 3 or 4 high, covered with a sterile lid on the top plate, placed into boxes with CO2 planchets (streptococci) or plastic bags (all other isolates). Plates were incubated at 35° C. for 16-24 hr in ambient air for aerobes or for 42-48 hr in the anaerobic environment of the Bactron II anaerobe chamber (Sheldon Manufacturing Co.; Cornelius, Oreg.). Following incubation, the microplates were removed from the incubator and viewed from the bottom using a plate viewer. The MIC values were read and recorded as the lowest concentration of drug that inhibited visible growth of the organism as per CLSI methods (1) and (2)."}, "Bacteroides non fragilis": {"tested_on": "Bacteroides non fragilis", "assay": "Agar dilution MIC, 29 clinical isolates", "assay_type": "cell-based, Bacteroides spp."}, "[2]": {"tested_on": "E. coli ATCC 35218 (TEM-1 β-lactamase producer)", "assay": "Broth microdilution MIC (time-kill study)", "assay_type": "cell-based, Escherichia coli"}, "Klebsiella spp.": {"tested_on": "Klebsiella spp.", "assay": "Broth microdilution MIC, 50 clinical isolates (20 K. oxytoca, 30 K. pneumoniae)", "assay_type": "cell-based", "procedure": "as §1, §2, §3, §4, §5, §6"}, "B. vulgatus ATCC 8482": {"tested_on": "B. vulgatus ATCC 8482", "assay": "Time-kill assay", "assay_type": "cell-based, Bacteroides vulgatus", "settings": "2×, 4×, 8× MIC; 2, 6, 24, 48 hr"}, "[3]": {"settings": "29 Bacteroides non-fragilis clinical isolates"}},
  "note": "Read-outs that look alike come from different tables or passages of the source.",
  "data": [
    {"smiles": "CO[C@H]1/C=C/O[C@@]2(C)Oc3c(C)c(O)c4c(O)c(c5c(nc6cc(C)ccn65)c4c3C2=O)NC(=O)/C(C)=C\\C=C\\[C@H](C)[C@H](O)[C@@H](C)[C@@H](O)[C@@H](C)[C@H](OC(C)=O)[C@@H]1C", "note": "[rifaximin]", "values": [
      {"measurement": "MIC", "setting": "E. coli MMX 1312; E. coli MMX 1312", "result": 8, "unit": "µg/mL"},
      {"measurement": "MIC", "setting": "E. coli MMX 1312; broth microdilution", "result": 8, "unit": "µg/mL"},
      {"measurement": "MPC values", "setting": "[1]", "result": "In no instance was an MPC able to be reported"},
      {"measurement": "MIC50", "setting": "Escherichia coli", "result": 8, "unit": "µg/mL"},
      {"measurement": "MIC90", "setting": "Escherichia coli", "result": 16, "unit": "µg/mL"},
      {"measurement": "MIC range", "setting": "Escherichia coli", "result": "1 to 32", "unit": "µg/mL"},
      {"measurement": "Mode", "setting": "Escherichia coli", "result": 8, "unit": "µg/mL"},
      {"measurement": "Cumulative percentage of isolates inhibited at MIC", "setting": "Escherichia coli; 1 μg/mL", "result": 2.0, "unit": "%"},
      {"measurement": "Number of test isolates at MIC", "setting": "Escherichia coli; 1 μg/mL", "result": 1},
      {"measurement": "Cumulative percentage of isolates inhibited at MIC", "setting": "Escherichia coli; 2 μg/mL", "result": 6.0, "unit": "%"},
      {"measurement": "Number of test isolates at MIC", "setting": "Escherichia coli; 2 μg/mL", "result": 2},
      {"measurement": "Cumulative percentage of isolates inhibited at MIC", "setting": "Escherichia coli; 4 μg/mL", "result": 34.0, "unit": "%"},
      {"measurement": "Number of test isolates at MIC", "setting": "Escherichia coli; 4 μg/mL", "result": 14},
      {"measurement": "Cumulative percentage of isolates inhibited at MIC", "setting": "Escherichia coli; 8 μg/mL", "result": 80.0, "unit": "%"},
      {"measurement": "Number of test isolates at MIC", "setting": "Escherichia coli; 8 μg/mL", "result": 23},
      {"measurement": "Cumulative percentage of isolates inhibited at MIC", "setting": "Escherichia coli; 16 μg/mL", "result": 98.0, "unit": "%"},
      {"measurement": "Number of test isolates at MIC", "setting": "Escherichia coli; 16 μg/mL", "result": 9},
      {"measurement": "Cumulative percentage of isolates inhibited at MIC", "setting": "Escherichia coli; 32 μg/mL", "result": 100.0, "unit": "%"},
      {"measurement": "Number of test isolates at MIC", "setting": "Escherichia coli; 32 μg/mL", "result": 1},
      {"measurement": "MIC50", "setting": "Bacteroides non fragilis", "result": 0.12, "unit": "µg/mL"},
      {"measurement": "MIC90", "setting": "Bacteroides non fragilis", "result": 0.5, "unit": "µg/mL"},
      {"measurement": "relative activity among drugs tested", "setting": "Bacteroides non fragilis", "result": "most active"},
      {"measurement": "MIC50", "setting": "Bacteroides non fragilis; [3]", "result": 0.12, "unit": "µg/mL"},
      {"measurement": "MIC90", "setting": "Bacteroides non fragilis; [3]", "result": 0.5, "unit": "µg/mL"},
      {"measurement": "MIC range", "setting": "Bacteroides non fragilis; [3]", "result": "0.03 to 0.5", "unit": "µg/mL"},
      {"measurement": "Mode", "setting": "Bacteroides non fragilis; modal MIC, 29 Bacteroides non-fragilis clinical isolates", "result": 0.12, "unit": "µg/mL"},
      {"measurement": "MIC", "setting": "[2]; E. coli ATCC 35218", "result": 4, "unit": "µg/mL"},
      {"measurement": "MIC", "setting": "[2]; broth microdilution", "result": 4, "unit": "µg/mL"},
      {"measurement": "MIC50", "setting": "Klebsiella spp.", "result": 32, "unit": "µg/mL"},
      {"measurement": "MIC90", "setting": "Klebsiella spp.", "result": "> 64", "unit": "µg/mL"},
      {"measurement": "Mode", "setting": "Klebsiella spp.", "result": 16, "unit": "µg/mL"},
      {"measurement": "Cumulative percentage of isolates at MIC", "setting": "Klebsiella spp.; 8 μg/mL", "result": 10.0, "unit": "%"},
      {"measurement": "Number of test isolates at MIC", "setting": "Klebsiella spp.; 8 μg/mL", "result": 5},
      {"measurement": "Cumulative percentage of isolates at MIC", "setting": "Klebsiella spp.; 16 μg/mL", "result": 46.0, "unit": "%"},
      {"measurement": "Number of test isolates at MIC", "setting": "Klebsiella spp.; 16 μg/mL", "result": 18},
      {"measurement": "Cumulative percentage of isolates at MIC", "setting": "Klebsiella spp.; 32 μg/mL", "result": 64.0, "unit": "%"},
      {"measurement": "Number of test isolates at MIC", "setting": "Klebsiella spp.; 32 μg/mL", "result": 9},
      {"measurement": "Cumulative percentage of isolates at MIC", "setting": "Klebsiella spp.; 64 μg/mL", "result": 80.0, "unit": "%"},
      {"measurement": "Number of test isolates at MIC", "setting": "Klebsiella spp.; 64 μg/mL", "result": 8},
      {"measurement": "Cumulative percentage of isolates at MIC", "setting": "Klebsiella spp.; >64 μg/mL", "result": 100.0, "unit": "%"},
      {"measurement": "Number of test isolates at MIC", "setting": "Klebsiella spp.; >64 μg/mL", "result": 10},
      {"measurement": "MIC90", "setting": "Klebsiella spp.; listed as RFX", "result": ">64", "unit": "µg/mL"},
      {"measurement": "time-kill kinetics outcome (bactericidal = ≥3 log reduction in CFU per mL)", "setting": "B. vulgatus ATCC 8482", "result": "bactericidal against this organism at 8×MIC at 6 hr; and at 2 and 4×MIC at 6, 24 and 48 hr"}
    ]}
  ]
}
